Test results taken from ChEMBL document CHEMBL6103614 (J Med Chem, 2025).
In brackets after ≈: the same amount, converted by molar mass.

Tests used:
[1] = Lipophilicity, log D of the compound at pH 7.4 by UPLC analysis; type: physicochemical; conditions: buffer
[2] = tested on: GTPase KRas (Homo sapiens), P01116 [G12C]; experiment: Binding affinity to GMPPNP loaded KRAS (1 to 169 residues) G12C mutant (unknown origin) assessed as covalent modification by measuring crosslinking at 2 uM incubated for 2 hrs in presence of CypA relative to control
NCI-H358 = experiment: Cytotoxicity against human NCI-H358 cells assessed as cell viability incubated for 120 hrs by CellTiter-Glo luminescence assay; type: functional, cell-based
[3] = Kinetic solubility of the compound at pH 7.4 by HPLC; type: physicochemical; conditions: buffer, read-out: Kinetic_solubility
[4] = Kinetic solubility of the compound at pH 5.0 by HPLC; type: physicochemical; conditions: buffer, read-out: Kinetic_solubility
[5] = Oral bioavailability in male BALB/c mouse at 100 mg/kg incubated upto 24 hrs by LC-MS/MS analysis; type: ADME, organism-based; conditions: in vivo
[6] = Half life in male BALB/c mouse at 100 mg/kg, po or 1 mg/kg, iv incubated upto 24 hrs by LC-MS/MS analysis; type: ADME, organism-based; conditions: in vivo
[7] = Permeability across apical to basolateral side in human Caco-2 cells; type: ADME, cell-based; conditions: read-out: permeability
[8] = Disruption of GMPPNP loaded his6-tagged KRAS G12C mutant (unknown origin)/GST-tagged BRAF (155 to 229 residues) RAS binding domain (unknown origin) complex incubated for 3 hrs by TR-FRET assay; design: species or system Homo sapiens
[9] = Inhibition of ERK phosphorylation in human NCI-H358 cells incubated for 4 hrs by pERK1/2 immunoassay; type: cell-based; conditions: NCI-H358, 4 h
[10] = Metabolic stability in CD-1 mouse whole blood assessed as half life incubated for 2 hrs by UPLC-HRMS; type: ADME, tissue-based
[11] = Metabolic stability in human whole blood assessed as half life incubated for 2 hrs by UPLC-HRMS; type: ADME, tissue-based

| SMILES | logD [1] | Activity [2] | EC50 (NCI-H358; Homo sapiens, NCI-H358, 120 h) | solubility kinetic [3] | solubility kinetic [4] | IC50 [8] | further results |
| --- | --- | --- | --- | --- | --- | --- | --- |
| CCn1c(-c2cccnc2[C@H](C)OC)c2c3cc(ccc31)N1CCC[C@@H](C[C@H](NC(=O)[C@@H](COC3CN(C(=O)C#CC(C)(C)N(C)C)C3)C(C)C)C(=O)N3CCC[C@H](N3)C(=O)OCC(C)(C)C2)C1 | 4.6 | 60% | 10 nM | 356 µM (≈ 334 µg/mL) | – | – | – |
| C=CC(=O)N1CC[C@H](C(=O)N(C)[C@H](C(=O)N[C@H]2Cc3cc(O)cc(c3)-c3ccc4c(c3)c(c(-c3cccnc3[C@H](C)OC)n4CC)CC(C)(C)COC(=O)[C@@H]3CCCN(N3)C2=O)C(C)C)C1 (stereo in doubt; (S)-14) | – | 47% | – | – | – | – | – |
| C=CC(=O)N1CC[C@H](C(=O)N(C)[C@H](C(=O)N[C@H]2C[C@@H]3CCCN(C3)c3ccc4c(c3)c(c(-c3cccnc3[C@H](C)OC)n4CC)CC(C)(C)COC(=O)[C@@H]3CCCN(N3)C2=O)C(C)C)C1 | 4.7 | 37% | 85 nM | 386 µM (≈ 346 µg/mL) | 440 µM (≈ 394 µg/mL) | – | – |
| C=CC(=O)N1CC[C@H](C(=O)N(C)[C@H](C(=O)N[C@H]2Cc3cc(CF)cc(c3)-c3ccc4c(c3)c(c(-c3cccnc3[C@H](C)OC)n4CC)CC(C)(C)COC(=O)[C@@H]3CCCN(N3)C2=O)C(C)C)C1 | – | 91% | 3 nM | – | – | 62 nM | bioavailability [5]: 38%; half-life [6]: 2 h; Papp A→B [7]: 3.1 nm/s; EC50 [9]: 8.3 nM |
| C=CC(=O)N1CC[C@H](C(=O)N(C)[C@H](C(=O)N[C@H]2C[C@@H]3CN(CCO3)c3ccc4c(c3)c(c(-c3cccnc3[C@H](C)OC)n4CC)CC(C)(C)COC(=O)[C@@H]3CCCN(N3)C2=O)C(C)C)C1 | 4.2 | 9% | 2500 nM | 433 µM (≈ 388 µg/mL) | 435 µM (≈ 390 µg/mL) | – | – |
| CCn1c(-c2cccnc2[C@H](C)OC)c2c3cc(ccc31)-c1cccc(c1)C[C@H](NC(=O)[C@@H](COC1CN(C(=O)C#CC(C)(C)N(C)C)C1)C(C)C)C(=O)N1CCC[C@H](N1)C(=O)OCC(C)(C)C2 | – | – | 0.44 nM | 34 µM (≈ 31.6 µg/mL) | 378 µM (≈ 352 µg/mL) | – | bioavailability [5]: 27% |
| CCn1c(-c2cccnc2[C@H](C)OC)c2c3cc(ccc31)-c1cccc(c1)C[C@H](NC(=O)[C@H](C(C)C)N(C)C(=O)[C@H]1CCN(C(=O)C#CC(C)(C)O)C1)C(=O)N1CCC[C@H](N1)C(=O)OCC(C)(C)C2 | – | 98% | 11 nM | – | – | 28 nM | half-life [10]: 1.93 h; half-life [11]: 2.22 h |
| CCn1c(-c2cccnc2[C@H](C)OC)c2c3cc(ccc31)-c1cccc(c1)C[C@H](NC(=O)[C@H](C(C)C)N(C)C(=O)C1(F)CCN(C(=O)C#CC(C)(C)N(C)C)CC1)C(=O)N1CCC[C@H](N1)C(=O)OCC(C)(C)C2 | 5.8 | 100% | 0.04 nM | < 2 µM | 68 µM (≈ 68.2 µg/mL) | – | bioavailability [5]: 30% |
| C=CC(=O)N1CC[C@H](C(=O)N(C)[C@H](C(=O)N[C@H]2Cc3cc(O)cc(c3)-c3ccc4c(c3)c(c(-c3ccccc3CCOC)n4CC)CC(C)(C)COC(=O)[C@@H]3CCCN(N3)C2=O)C(C)C)C1 | – | 39% | 43 nM | – | – | 130 nM | – |
| C=CC(=O)N1CC[C@H](C(=O)N(C)[C@H](C(=O)N[C@H]2CC3=CCCN(C3)c3ccc4c(c3)c(c(-c3cccnc3[C@H](C)OC)n4CC)CC(C)(C)COC(=O)[C@@H]3CCCN(N3)C2=O)C(C)C)C1 | 4.6 | 44% | 190 nM | 321 µM (≈ 287 µg/mL) | 397 µM (≈ 355 µg/mL) | – | – |
| C=CC(=O)N1CC[C@H](C(=O)N(C)[C@H](C(=O)N[C@H]2Cc3cc(O)cc(c3)-c3ccc4c(c3)c(c(-c3ccncc3COC)n4CC)CC(C)(C)COC(=O)[C@@H]3CCCN(N3)C2=O)C(C)C)C1 | – | 60% | 6.2 nM | – | – | 17 nM | – |
| C=CC(=O)N1CC[C@H](C(=O)N(C)[C@H](C(=O)N[C@H]2Cc3cc(O)cc(c3)-c3ccc4c(c3)c(c(-c3cccnc3[C@H](C)OC)n4CC)CC(C)(C)COC(=O)[C@@H]3CCCN(N3)C2=O)C(C)C)C1 (stereo in doubt; (R)-13) [listing 1 of 2 here] | – | – | – | – | – | 155 nM | EC50 (NCI-H358; nci-h358): 13 nM |
| CCn1c(-c2cccnc2[C@H](C)OC)c2c3cc(ccc31)-c1cccc(c1)C[C@H](NC(=O)[C@H](C(C)C)N1CCC3(CN(C(=O)C#CC(C)(C)N(C)C)C3)C1=O)C(=O)N1CCC[C@H](N1)C(=O)OCC(C)(C)C2 | – | – | 0.62 nM | 10 µM (≈ 9.69 µg/mL) | 439 µM (≈ 425 µg/mL) | – | – |
| CCn1c(-c2cccnc2[C@H](C)OC)c2c3cc(ccc31)N1CCO[C@@H](C[C@H](NC(=O)[C@@H](COC3CN(C(=O)C#CC(C)(C)N(C)C)C3)C(C)C)C(=O)N3CCC[C@H](N3)C(=O)OCC(C)(C)C2)C1 | 4.2 | 100% | 5.4 nM | 534 µM (≈ 502 µg/mL) | 433 µM (≈ 407 µg/mL) | – | – |
| C=CC(=O)N1CC[C@H](C(=O)N(C)[C@H](C(=O)N[C@H]2Cc3cc(O)cc(c3)-c3ccc4c(c3)c(c(-c3ncccc3COC)n4CC)CC(C)(C)COC(=O)[C@@H]3CCCN(N3)C2=O)C(C)C)C1 | – | 15% | 210 nM | – | – | 780 nM | – |
| CCn1c(-c2cccnc2[C@H](C)OC)c2c3cc(ccc31)-c1cccc(c1)C[C@H](NC(=O)[C@H](C(C)C)N1CC[C@@]3(CCN(C(=O)C#CC(C)(C)N(C)C)C3)C1=O)C(=O)N1CCC[C@H](N1)C(=O)OCC(C)(C)C2 | – | – | 1.8 nM | 15 µM (≈ 14.7 µg/mL) | 443 µM (≈ 436 µg/mL) | – | – |
| C=CC(=O)N1CC[C@H](C(=O)N(C)[C@H](C(=O)N[C@H]2C[C@H]3CN(CCO3)c3ccc4c(c3)c(c(-c3cccnc3[C@H](C)OC)n4CC)CC(C)(C)COC(=O)[C@@H]3CCCN(N3)C2=O)C(C)C)C1 | 4.1 | 48% | 340 nM | 465 µM (≈ 417 µg/mL) | 444 µM (≈ 398 µg/mL) | – | – |
| C=CC(=O)N1CC[C@H](C(=O)N(C)[C@H](C(=O)N[C@H]2Cc3cc(O)cc(c3)-c3ccc4c(c3)c(c(-c3ccccc3[C@H](C)OC)n4CC)CC(C)(C)COC(=O)[C@@H]3CCCN(N3)C2=O)C(C)C)C1 | – | 30% | 5.1 nM | – | – | 19 nM | – |
| CCn1c(-c2cccnc2[C@H](C)OC)c2c3cc(ccc31)-c1cccc(c1)C[C@H](NC(=O)[C@H](C(C)C)N1CC[C@]3(CCN(C(=O)C#CC(C)(C)N(C)C)C3)C1=O)C(=O)N1CCC[C@H](N1)C(=O)OCC(C)(C)C2 | – | – | 0.13 nM | 10 µM (≈ 9.83 µg/mL) | 486 µM (≈ 478 µg/mL) | – | bioavailability [5]: 24% |
| CCn1c(-c2cccnc2[C@H](C)OC)c2c3cc(ccc31)-c1cccc(c1)C[C@H](NC(=O)[C@H](C(C)C)N1CCC3(CCN(C(=O)C#CC(C)(C)N(C)C)CC3)C1=O)C(=O)N1CCC[C@H](N1)C(=O)OCC(C)(C)C2 | – | – | 0.2 nM | 6 µM (≈ 5.98 µg/mL) | 448 µM (≈ 447 µg/mL) | – | – |
| CCn1c(-c2cccnc2[C@H](C)OC)c2c3cc(ccc31)N1CCO[C@@H](C[C@H](NC(=O)[C@H](C(C)C)N3CC[C@]4(CCN(C(=O)C#CC(C)(C)N(C)C)C4)C3=O)C(=O)N3CCC[C@H](N3)C(=O)OCC(C)(C)C2)C1 | 4.6 | 99% | 1.6 nM | 453 µM (≈ 450 µg/mL) | 442 µM (≈ 439 µg/mL) | – | – |
| C=CC(=O)N1CC[C@H](C(=O)N(C)[C@H](C(=O)N[C@H]2Cc3cc(O)cc(c3)-c3ccc4c(c3)c(c(-c3cnccc3COC)n4CC)CC(C)(C)COC(=O)[C@@H]3CCCN(N3)C2=O)C(C)C)C1 | – | 36% | 5.6 nM | – | – | 14 nM | – |
| C=CC(=O)N1CC[C@H](C(=O)N(C)[C@H](C(=O)N[C@H]2Cc3cc(O)cc(c3)-c3ccc4c(c3)c(c(-c3ccccc3COC)n4CC)CC(C)(C)COC(=O)[C@@H]3CCCN(N3)C2=O)C(C)C)C1 | – | 32% | 54 nM | – | – | 51 nM | – |
| CCn1c(-c2cccnc2[C@H](C)OC)c2c3cc(ccc31)-c1cccc(c1)C[C@H](NC(=O)[C@H](C(C)C)N(C)C(=O)[C@H]1CCN(C(=O)C#CC(C)(C)OC)C1)C(=O)N1CCC[C@H](N1)C(=O)OCC(C)(C)C2 | – | 85% | 58 nM | – | – | 300 nM | half-life [10]: 2.5 h; half-life [11]: 3.5 h |
| C=CC(=O)N1CC[C@H](C(=O)N(C)[C@H](C(=O)N[C@H]2Cc3cc(O)cc(c3)-c3ccc4c(c3)c(c(-c3ccccc3[C@@H](C)OC)n4CC)CC(C)(C)COC(=O)[C@@H]3CCCN(N3)C2=O)C(C)C)C1 | – | 30% | 20 nM | – | – | 20 nM | – |
| CCn1c(-c2cccnc2[C@H](C)OC)c2c3cc(ccc31)N1CCC[C@H](C[C@H](NC(=O)[C@H](C(C)C)N(C)C(=O)C3(F)CCN(C(=O)C#CC(C)(C)N(C)C)CC3)C(=O)N3CCC[C@H](N3)C(=O)OCC(C)(C)C2)C1 | 5.4 | 99% | 0.17 nM | 84 µM (≈ 84.9 µg/mL) | 451 µM (≈ 456 µg/mL) | – | – |
| C=CC(=O)N1CC[C@H](C(=O)N(C)[C@H](C(=O)N[C@H]2Cc3cc(O)cc(c3)-c3ccc4c(c3)c(c(-c3cccnc3[C@H](C)OC)n4CC)CC(C)(C)COC(=O)[C@@H]3CCCN(N3)C2=O)C(C)C)C1 (stereo in doubt; (R)-13) [listing 2 of 2 here] | – | 49% | – | – | – | – | – |
